Data: ChEMBL document CHEMBL2331439 (J Med Chem, 2013)

Key:
[1] = target: Mitogen-activated protein kinase 1 (Homo sapiens, UniProt P28482); experiment: Inhibition of recombinant ERK2 (unknown origin) by FRET-based Z'-LYTE assay
[2] = target: AMP-activated protein kinase (AMPK) alpha-1/beta-1/gamma-1 (Homo sapiens, UniProt P54619+Q13131+Q9Y478); experiment: Inhibition of recombinant AMPK A1/B1/G1 (unknown origin) by FRET-based Z'-LYTE assay; assay type: protein-complex assay
[3] = target: Dual specificity mitogen-activated protein kinase kinase 1 (Homo sapiens, UniProt Q02750); experiment: Inhibition of recombinant MEK1 (unknown origin) by cascade reaction assay
[4] = target: RAC-beta serine/threonine-protein kinase (Homo sapiens, UniProt P31751); experiment: Inhibition of recombinant AKT2 (unknown origin) by FRET-based Z'-LYTE assay
[5] = target: T1, Inhibitor of nuclear factor kappa-B kinase subunit beta (Homo sapiens, UniProt O14920); experiment: Inhibition of recombinant IKBKB (unknown origin) by FRET-based Z'-LYTE assay
T1 sequence (O14920 whole entry): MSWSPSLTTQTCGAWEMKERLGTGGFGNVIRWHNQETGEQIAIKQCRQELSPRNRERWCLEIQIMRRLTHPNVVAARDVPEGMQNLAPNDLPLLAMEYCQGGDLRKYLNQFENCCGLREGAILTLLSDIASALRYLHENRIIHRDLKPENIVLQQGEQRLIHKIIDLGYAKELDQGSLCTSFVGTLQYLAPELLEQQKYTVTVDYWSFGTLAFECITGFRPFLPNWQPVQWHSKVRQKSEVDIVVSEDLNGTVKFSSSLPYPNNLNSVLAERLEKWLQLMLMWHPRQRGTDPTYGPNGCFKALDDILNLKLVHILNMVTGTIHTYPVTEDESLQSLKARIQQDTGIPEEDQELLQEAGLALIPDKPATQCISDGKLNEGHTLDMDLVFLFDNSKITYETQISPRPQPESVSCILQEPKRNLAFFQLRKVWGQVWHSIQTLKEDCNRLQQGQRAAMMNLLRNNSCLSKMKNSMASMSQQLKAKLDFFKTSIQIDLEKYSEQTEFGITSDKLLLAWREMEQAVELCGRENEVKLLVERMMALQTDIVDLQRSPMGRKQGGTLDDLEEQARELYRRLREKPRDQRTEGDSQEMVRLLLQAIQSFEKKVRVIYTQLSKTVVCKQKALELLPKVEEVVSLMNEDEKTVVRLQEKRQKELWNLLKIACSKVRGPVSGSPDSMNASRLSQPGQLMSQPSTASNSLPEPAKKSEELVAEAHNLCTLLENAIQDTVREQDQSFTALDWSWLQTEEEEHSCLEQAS

[6] = target: T2, Serine/threonine-protein kinase Nek1 (Homo sapiens, UniProt Q96PY6); experiment: Inhibition of recombinant NEK1 (unknown origin) by FRET-based Z'-LYTE assay
T2 sequence (Q96PY6 whole entry): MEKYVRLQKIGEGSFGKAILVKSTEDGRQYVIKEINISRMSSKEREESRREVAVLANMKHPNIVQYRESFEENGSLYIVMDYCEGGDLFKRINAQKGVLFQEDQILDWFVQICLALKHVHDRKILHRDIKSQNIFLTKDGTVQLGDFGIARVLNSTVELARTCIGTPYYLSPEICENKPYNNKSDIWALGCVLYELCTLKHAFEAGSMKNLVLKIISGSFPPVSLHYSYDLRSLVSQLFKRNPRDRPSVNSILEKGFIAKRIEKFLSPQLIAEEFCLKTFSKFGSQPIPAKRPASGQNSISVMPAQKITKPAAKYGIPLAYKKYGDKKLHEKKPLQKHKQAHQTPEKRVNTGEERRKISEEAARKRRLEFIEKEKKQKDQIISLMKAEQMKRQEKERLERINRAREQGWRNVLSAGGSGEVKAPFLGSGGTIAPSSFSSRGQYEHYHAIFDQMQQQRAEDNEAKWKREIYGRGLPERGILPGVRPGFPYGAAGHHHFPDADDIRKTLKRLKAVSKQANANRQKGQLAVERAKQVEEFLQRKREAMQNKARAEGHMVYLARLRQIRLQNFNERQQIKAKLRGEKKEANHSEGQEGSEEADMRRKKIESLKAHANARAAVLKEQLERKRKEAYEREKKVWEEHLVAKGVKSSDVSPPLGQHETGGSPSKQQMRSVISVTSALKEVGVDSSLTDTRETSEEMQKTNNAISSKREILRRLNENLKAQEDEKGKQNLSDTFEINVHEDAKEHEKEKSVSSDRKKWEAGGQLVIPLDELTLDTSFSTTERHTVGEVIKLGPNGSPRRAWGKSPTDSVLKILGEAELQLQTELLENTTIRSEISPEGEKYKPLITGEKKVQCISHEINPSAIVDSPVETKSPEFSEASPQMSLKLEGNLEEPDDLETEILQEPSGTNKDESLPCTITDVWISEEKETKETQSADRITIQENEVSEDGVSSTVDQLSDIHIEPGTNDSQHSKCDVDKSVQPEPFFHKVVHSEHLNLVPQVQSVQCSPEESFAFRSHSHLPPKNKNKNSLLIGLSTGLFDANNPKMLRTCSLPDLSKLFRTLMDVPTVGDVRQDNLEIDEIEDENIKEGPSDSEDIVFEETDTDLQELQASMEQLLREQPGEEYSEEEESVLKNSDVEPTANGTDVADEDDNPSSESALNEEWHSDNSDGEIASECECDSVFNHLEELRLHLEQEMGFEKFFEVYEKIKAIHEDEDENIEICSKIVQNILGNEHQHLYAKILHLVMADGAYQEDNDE

[7] = target: MAP kinase-activated protein kinase 2 (Homo sapiens, UniProt P49137); experiment: Inhibition of recombinant MAPKAPK2 (unknown origin) by FRET-based Z'-LYTE assay
[8] = target: RAC-alpha serine/threonine-protein kinase (Homo sapiens, UniProt P31749); experiment: Inhibition of recombinant AKT1 (unknown origin) by FRET-based Z'-LYTE assay
[9] = target: Ribosomal protein S6 kinase beta-1 (Homo sapiens, UniProt P23443); experiment: Inhibition of recombinant RPS6K1 (unknown origin) by FRET-based Z'-LYTE assay
[10] = target: Mitogen-activated protein kinase 14 (Homo sapiens, UniProt Q16539); experiment: Inhibition of recombinant MAPK14 (unknown origin) by FRET-based Z'-LYTE assay
[11] = target: Vascular endothelial growth factor receptor 2 (Homo sapiens, UniProt P35968); experiment: Inhibition of recombinant KDR (unknown origin) by FRET-based Z'-LYTE assay
[12] = target: RAF proto-oncogene serine/threonine-protein kinase (Homo sapiens, UniProt P04049); experiment: Inhibition of recombinant RAF1 (unknown origin) by cascade reaction assay
Chain of RAF proto-oncogene serine/threonine-protein kinase (P04049 whole entry): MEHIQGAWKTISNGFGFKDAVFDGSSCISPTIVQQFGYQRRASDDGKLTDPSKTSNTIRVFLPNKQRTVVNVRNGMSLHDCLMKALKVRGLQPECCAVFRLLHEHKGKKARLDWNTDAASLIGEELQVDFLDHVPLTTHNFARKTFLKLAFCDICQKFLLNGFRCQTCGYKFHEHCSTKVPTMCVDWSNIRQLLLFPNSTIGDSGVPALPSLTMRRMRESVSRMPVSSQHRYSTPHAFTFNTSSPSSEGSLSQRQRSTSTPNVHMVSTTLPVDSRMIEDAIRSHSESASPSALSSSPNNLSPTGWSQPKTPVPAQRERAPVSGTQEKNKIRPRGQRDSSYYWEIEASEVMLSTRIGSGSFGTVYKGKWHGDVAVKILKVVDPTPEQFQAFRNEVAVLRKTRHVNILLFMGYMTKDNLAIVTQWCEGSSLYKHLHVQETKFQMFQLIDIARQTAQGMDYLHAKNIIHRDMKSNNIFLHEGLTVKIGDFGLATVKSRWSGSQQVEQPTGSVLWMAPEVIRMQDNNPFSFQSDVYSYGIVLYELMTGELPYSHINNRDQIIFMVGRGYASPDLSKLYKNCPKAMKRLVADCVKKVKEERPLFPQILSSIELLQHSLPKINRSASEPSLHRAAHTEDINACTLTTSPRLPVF

Chain of RAC-beta serine/threonine-protein kinase (P31751 whole entry): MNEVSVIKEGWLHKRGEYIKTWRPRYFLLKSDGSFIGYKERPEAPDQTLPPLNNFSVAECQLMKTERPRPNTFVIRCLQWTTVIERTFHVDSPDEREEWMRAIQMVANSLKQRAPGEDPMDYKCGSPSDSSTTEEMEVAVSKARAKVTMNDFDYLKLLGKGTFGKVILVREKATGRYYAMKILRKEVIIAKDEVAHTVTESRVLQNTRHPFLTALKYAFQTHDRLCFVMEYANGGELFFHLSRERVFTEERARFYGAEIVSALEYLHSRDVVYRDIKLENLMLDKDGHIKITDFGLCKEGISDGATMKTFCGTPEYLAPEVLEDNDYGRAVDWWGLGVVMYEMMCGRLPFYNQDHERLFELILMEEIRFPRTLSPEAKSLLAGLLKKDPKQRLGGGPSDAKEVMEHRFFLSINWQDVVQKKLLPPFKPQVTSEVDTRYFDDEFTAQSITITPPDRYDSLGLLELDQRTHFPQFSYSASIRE
Chain of MAP kinase-activated protein kinase 2 (P49137 whole entry): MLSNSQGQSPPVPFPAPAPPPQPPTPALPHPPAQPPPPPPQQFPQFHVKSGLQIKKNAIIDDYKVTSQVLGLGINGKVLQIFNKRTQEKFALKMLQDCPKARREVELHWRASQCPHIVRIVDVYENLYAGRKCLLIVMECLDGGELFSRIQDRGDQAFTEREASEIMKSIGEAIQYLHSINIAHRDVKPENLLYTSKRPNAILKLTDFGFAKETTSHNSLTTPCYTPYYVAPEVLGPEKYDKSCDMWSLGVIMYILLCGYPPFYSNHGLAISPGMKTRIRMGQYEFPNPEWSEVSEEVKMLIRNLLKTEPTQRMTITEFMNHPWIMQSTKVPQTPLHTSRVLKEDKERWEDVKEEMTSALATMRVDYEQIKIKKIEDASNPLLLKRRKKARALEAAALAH
Chain of Mitogen-activated protein kinase 14 (Q16539 whole entry): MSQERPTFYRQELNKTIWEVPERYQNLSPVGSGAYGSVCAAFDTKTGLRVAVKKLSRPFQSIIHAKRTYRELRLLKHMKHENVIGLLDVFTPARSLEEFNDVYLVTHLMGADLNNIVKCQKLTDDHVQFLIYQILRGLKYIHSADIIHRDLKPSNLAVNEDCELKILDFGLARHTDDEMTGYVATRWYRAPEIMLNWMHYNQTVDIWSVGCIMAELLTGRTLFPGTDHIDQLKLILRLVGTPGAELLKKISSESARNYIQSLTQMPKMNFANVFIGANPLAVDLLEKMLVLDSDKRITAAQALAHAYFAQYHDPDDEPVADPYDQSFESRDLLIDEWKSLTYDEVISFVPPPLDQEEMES
Chain of Ribosomal protein S6 kinase beta-1 (P23443 whole entry): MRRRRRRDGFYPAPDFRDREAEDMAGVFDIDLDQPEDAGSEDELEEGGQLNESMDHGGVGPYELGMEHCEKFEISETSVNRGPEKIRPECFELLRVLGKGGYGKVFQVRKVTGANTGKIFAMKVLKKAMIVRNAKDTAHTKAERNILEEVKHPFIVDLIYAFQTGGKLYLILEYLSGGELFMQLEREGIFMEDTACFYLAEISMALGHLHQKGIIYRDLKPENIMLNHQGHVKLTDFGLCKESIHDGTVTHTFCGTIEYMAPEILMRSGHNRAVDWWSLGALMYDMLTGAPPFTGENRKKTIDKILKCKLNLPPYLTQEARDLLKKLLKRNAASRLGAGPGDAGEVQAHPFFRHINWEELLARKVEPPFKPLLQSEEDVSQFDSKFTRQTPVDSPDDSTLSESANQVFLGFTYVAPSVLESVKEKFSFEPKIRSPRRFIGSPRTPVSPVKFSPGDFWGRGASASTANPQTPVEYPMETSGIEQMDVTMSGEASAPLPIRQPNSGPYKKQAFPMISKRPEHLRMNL
Chain of Mitogen-activated protein kinase 1 (P28482 whole entry): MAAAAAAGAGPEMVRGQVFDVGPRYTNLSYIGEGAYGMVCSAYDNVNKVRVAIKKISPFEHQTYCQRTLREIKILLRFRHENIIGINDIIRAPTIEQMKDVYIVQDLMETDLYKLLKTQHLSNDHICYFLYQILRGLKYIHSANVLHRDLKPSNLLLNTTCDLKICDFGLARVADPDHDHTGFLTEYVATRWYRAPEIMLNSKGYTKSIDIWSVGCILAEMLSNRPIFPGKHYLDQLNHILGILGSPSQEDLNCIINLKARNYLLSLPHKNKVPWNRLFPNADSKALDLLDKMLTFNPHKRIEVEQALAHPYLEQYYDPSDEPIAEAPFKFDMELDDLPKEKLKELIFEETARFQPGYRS
Chain of Vascular endothelial growth factor receptor 2 (P35968 whole entry): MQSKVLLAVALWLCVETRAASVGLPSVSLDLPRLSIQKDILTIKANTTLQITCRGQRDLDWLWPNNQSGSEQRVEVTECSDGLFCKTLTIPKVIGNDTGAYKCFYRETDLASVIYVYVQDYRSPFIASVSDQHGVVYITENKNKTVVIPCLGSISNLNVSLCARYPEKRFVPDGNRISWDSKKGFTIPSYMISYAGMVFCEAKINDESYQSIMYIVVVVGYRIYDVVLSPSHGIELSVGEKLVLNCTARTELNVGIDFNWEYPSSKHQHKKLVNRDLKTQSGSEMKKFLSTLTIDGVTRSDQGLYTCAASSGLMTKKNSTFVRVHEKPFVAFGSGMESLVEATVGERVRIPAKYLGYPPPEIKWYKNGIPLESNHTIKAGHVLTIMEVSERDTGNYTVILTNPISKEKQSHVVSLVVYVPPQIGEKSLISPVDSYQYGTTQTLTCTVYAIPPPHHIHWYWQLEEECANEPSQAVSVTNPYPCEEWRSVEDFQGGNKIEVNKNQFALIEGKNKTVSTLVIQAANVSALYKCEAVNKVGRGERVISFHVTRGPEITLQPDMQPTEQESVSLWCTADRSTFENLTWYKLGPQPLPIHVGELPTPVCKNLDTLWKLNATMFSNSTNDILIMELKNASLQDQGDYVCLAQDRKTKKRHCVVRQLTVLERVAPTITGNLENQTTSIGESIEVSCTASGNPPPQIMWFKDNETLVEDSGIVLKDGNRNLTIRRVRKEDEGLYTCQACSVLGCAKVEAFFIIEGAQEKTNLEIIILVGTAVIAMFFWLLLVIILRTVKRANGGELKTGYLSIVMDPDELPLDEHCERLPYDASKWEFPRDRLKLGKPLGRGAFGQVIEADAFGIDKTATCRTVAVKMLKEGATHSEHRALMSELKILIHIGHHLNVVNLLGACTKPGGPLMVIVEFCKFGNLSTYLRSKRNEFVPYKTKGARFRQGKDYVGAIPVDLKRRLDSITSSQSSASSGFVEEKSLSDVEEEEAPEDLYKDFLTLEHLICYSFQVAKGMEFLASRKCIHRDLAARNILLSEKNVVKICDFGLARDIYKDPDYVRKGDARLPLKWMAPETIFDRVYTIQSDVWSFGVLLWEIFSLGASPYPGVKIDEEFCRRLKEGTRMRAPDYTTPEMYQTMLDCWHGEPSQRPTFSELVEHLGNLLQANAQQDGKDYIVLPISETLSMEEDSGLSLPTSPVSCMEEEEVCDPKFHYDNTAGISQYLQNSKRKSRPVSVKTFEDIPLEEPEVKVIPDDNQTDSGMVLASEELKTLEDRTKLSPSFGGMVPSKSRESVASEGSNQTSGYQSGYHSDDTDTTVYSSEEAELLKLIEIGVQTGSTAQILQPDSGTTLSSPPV
Chain of RAC-alpha serine/threonine-protein kinase (P31749 whole entry): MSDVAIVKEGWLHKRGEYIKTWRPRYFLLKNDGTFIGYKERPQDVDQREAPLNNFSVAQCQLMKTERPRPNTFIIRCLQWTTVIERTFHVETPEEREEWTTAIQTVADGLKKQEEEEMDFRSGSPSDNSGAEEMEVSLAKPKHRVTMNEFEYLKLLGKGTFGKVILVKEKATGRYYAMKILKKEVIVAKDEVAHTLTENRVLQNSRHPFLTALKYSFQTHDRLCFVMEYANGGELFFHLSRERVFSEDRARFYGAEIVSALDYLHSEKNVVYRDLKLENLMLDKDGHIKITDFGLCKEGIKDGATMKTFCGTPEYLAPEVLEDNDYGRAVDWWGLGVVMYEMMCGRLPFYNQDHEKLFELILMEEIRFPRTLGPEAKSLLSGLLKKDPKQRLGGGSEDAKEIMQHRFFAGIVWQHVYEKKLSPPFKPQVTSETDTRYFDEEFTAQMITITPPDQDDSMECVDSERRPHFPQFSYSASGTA
Chain of Dual specificity mitogen-activated protein kinase kinase 1 (Q02750 whole entry): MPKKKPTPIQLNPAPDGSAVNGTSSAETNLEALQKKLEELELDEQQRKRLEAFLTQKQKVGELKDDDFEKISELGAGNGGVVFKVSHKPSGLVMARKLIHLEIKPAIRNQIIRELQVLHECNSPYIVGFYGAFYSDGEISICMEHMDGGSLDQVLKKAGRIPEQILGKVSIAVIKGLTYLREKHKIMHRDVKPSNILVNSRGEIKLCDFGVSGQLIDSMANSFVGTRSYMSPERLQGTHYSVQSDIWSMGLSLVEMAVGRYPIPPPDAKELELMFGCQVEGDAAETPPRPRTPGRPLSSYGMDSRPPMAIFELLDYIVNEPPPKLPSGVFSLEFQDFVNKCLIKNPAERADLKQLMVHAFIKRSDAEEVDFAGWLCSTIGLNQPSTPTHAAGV

| IC50 [1] | IC50 [2] | IC50 [3] | IC50 [4] | IC50 [5] | IC50 [6] | IC50 [7] | IC50 [8] | IC50 [9] | IC50 [10] | IC50 [11] | IC50 [12] | SMILES |
| --- | --- | --- | --- | --- | --- | --- | --- | --- | --- | --- | --- | --- |
| 27 µM | 2.5 µM | 9 µM | 1.9 µM | 4 µM | 3.5 µM | 9.8 µM | 2.6 µM | 6 µM | > 100 µM | 1.3 µM |  | CN1C/C(=C\c2ccccn2)C(=O)/C(=C/c2ccccn2)C1 |
| 20 µM | 26 µM | 30 µM | 3.3 µM | 34 µM | 14 µM | 16 µM | 3.6 µM | 12 µM | > 100 µM | 6.5 µM | 8.5 µM | O=C1/C(=C/c2ccccn2)CSC/C1=C\c1ccccn1 |
| > 100 µM |  |  | > 100 µM | 15 µM |  | > 100 µM |  | > 100 µM | > 100 µM |  | > 100 µM | CN1C/C(=C\c2ccccn2)C(=O)[C@@H](Cc2ccccn2)C1 |
| > 100 µM |  |  | > 100 µM | 15 µM |  | > 100 µM |  | > 100 µM | > 100 µM |  | > 100 µM | CN1C/C(=C\c2ccccn2)C(=O)[C@H](Cc2ccccn2)C1 |
